Key:
[1] = Single dose rising study of the encapsulated formulation in healthy human volunteers, pharmacokinetics; type: in vivo; details: for AUC / Cmax / Tmax / half-life: plasma, oral capsule; for AUC: 0 to 72 hours post administration, read-out: AUC (area under the plasma concentration time curve); for Cmax: read-out: Cmax (mean maximum plasma concentration); for Tmax: read-out: Tmax (median time of maximum plasma concentration); for half-life: read-out: Half Life T ½ (converted)
Method: Another aspect of the present invention is the provision of a pharmaceutical formulation comprising a hydrochloride monohydrate salt of Formula II in a capsule oral dosage form which has a Pharmacokinetic (PK) profile obtained under single dose rising rate study conditions in accordance with Table VIII (average of eight study subjects).
Blood samples were collected from each volunteer at predose (hour 0) and 0.25, 0.5, 0.75, 1, 1.5, 2, 3, 4, 6, 8, 12, 16, 24, 36, 48, and 72 hours. The serum drug levels of the volunteers receiving active drug are present graphically in FIG. 2.

[2] = Second study: 10, 25 or 50 mg per day for 10 days in healthy volunteers, pharmacokinetics on days 1 and 10; type: in vivo, human; details: for Cmax / AUC / Tmax / half-life: plasma, oral; for Cmax: read-out: Cmax (mean maximum plasma concentration); for AUC: footnote: 0 to 72 hours post administration, read-out: AUC (area under the plasma concentration time curve); for Tmax: read-out: Tmax (median time of maximum plasma concentration); for half-life: read-out: Half Life T ½ (converted)
Method: In a second study, three cohorts of 8 healthy volunteers each were administered 10, 25, or 50 mg per day for each of 10 days. Administration in every case followed a 10 hour fast. Blood samples were collected from each volunteer at predose (hour 0) and 0.25, 0.5, 0.75, 1, 1.5, 2, 3, 4, 6, 8, 12, 16, 24, 36, 48, and 72 hours on each of days 1 and 10.

[3] = human, 10 mg per day, human, 10 mg per day, Day 1
[4] = human, 10 mg per day, human, 10 mg per day, Day 10
[5] = human, 25 mg per day, human, 25 mg per day, Day 1
[6] = human, 25 mg per day, human, 25 mg per day, Day 10
[7] = human, 50 mg per day, human, 50 mg per day, Day 1
[8] = human, 50 mg per day, human, 50 mg per day, Day 10

C[C@@H](OC[C@@]1(c2ccccc2)CC[C@]2(CCC(=O)N2)CN1)c1cc(C(F)(F)F)cc(C(F)(F)F)c1 [(5S,8S)-8-[{(1R)-1-(3,5-Bis-(trifluoromethyl)phenyl]-ethoxy}-methyl]-8-phenyl-1,7-diazaspiro[4,5]decan-2-one]
AUC ([1]; single dose 5 mg): 931 ng·h/mL
Cmax ([1]; single dose 5 mg): 27.3 ng/mL
Tmax ([1]; single dose 5 mg): 2 h
AUC ([1]; single dose 10 mg): 1820 ng·h/mL
Cmax ([1]; single dose 10 mg): 52.7 ng/mL
Tmax ([1]; single dose 10 mg): 2.5 h
AUC ([1]; single dose 25 mg): 17200 ng·h/mL
Cmax ([1]; single dose 25 mg): 119 ng/mL
half-life ([1]; single dose 25 mg): 183 h
Tmax ([1]; single dose 25 mg): 2.5 h
AUC ([1]; single dose 50 mg): 33600 ng·h/mL
Cmax ([1]; single dose 50 mg): 276 ng/mL
half-life ([1]; single dose 50 mg): 171 h
Tmax ([1]; single dose 50 mg): 3 h
AUC ([1]; single dose 100 mg): 74400 ng·h/mL
Cmax ([1]; single dose 100 mg): 475 ng/mL
half-life ([1]; single dose 100 mg): 181 h
Tmax ([1]; single dose 100 mg): 2 h
AUC ([1]; single dose 200 mg): 148000 ng·h/mL
Cmax ([1]; single dose 200 mg): 944 ng/mL
half-life ([1]; single dose 200 mg): 169 h
Tmax ([1]; single dose 200 mg): 4 h
Absorption ([1]; single oral doses 5 to 200 mg): rapidly absorbed
Absorption ([2]; human, 10, 25 or 50 mg per day for 10 days): rapidly absorbed
Accumulation relative to the single dose ([2]; human, daily dosing for 10 days): approximately 5 fold
Cmax ([2]; human, 10 mg per day, human, 10 mg per day, Day 1, after 10 hour fast): 48.6 ng/mL
AUC [2, 3]: 673 ng·h/mL
Tmax [2, 3]: 3 h
Cmax ([2]; human, 10 mg per day, human, 10 mg per day, Day 10, after 10 hour fast): 180 ng/mL
AUC [2, 4]: 3590 ng·h/mL
Tmax [2, 4]: 3 h
Cmax ([2]; human, 25 mg per day, human, 25 mg per day, Day 1, after 10 hour fast): 139 ng/mL
AUC [2, 5]: 1950 ng·h/mL
Tmax [2, 5]: 2 h
Cmax ([2]; human, 25 mg per day, human, 25 mg per day, Day 10, after 10 hour fast): 491 ng/mL
AUC [2, 6]: 9720 ng·h/mL
Tmax [2, 6]: 2 h
Cmax ([2]; human, 50 mg per day, human, 50 mg per day, Day 1, after 10 hour fast): 254 ng/mL
AUC [2, 7]: 3400 ng·h/mL
Tmax [2, 7]: 3 h
Cmax ([2]; human, 50 mg per day, human, 50 mg per day, Day 10, after 10 hour fast): 895 ng/mL
AUC [2, 8]: 17700 ng·h/mL
Tmax [2, 8]: 2.5 h
half-life ([2]; human, 10 mg per day, Day 10): 238 h
half-life ([2]; human, 50 mg per day, Day 10): 172 h

— patent US7563801B2, “Pharmaceutical formulations: salts of 8-[{1-(3,5-Bis-(trifluoromethyl)phenyl)-ethoxy}-methyl]-8-phenyl-1,7-diaza-spiro[4.5]decan-2-one and treatment methods using the same” (Schering Corporation, priority 2006, dated 2009)
